For 1 compound, Kd results are on record in publication PMC8034593 (The FEBS journal, 2020).

For this experiment, the target named is KanJ (kanamycin B dioxygenase) (Streptomyces kanamyceticus, UniProt Q6L732). In words: isothermal titration calorimetry. The experiment is classed as binding. (In general: ITC needs no label: the signal is the heat of the interaction.)
Chain of KanJ (kanamycin B dioxygenase) (Q6L732 whole entry): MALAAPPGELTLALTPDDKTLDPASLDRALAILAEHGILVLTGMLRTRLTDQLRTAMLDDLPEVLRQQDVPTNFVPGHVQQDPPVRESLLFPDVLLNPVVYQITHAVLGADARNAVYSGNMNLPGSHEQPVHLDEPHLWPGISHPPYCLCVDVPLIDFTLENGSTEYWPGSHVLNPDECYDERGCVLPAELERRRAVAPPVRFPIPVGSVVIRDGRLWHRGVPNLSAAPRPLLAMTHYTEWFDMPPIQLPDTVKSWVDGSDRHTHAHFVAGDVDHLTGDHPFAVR

Broadly, the Kd is the concentration at which binding is half-saturated. The low end stands for higher affinity, the high end for lower affinity. Compound `NC[C@H]1O[C@H](O[C@H]2[C@H](O)[C@@H](O[C@H]3O[C@H](CO)[C@@H](O)[C@H](N)[C@H]3O)[C@H](N)C[C@@H]2N)[C@H](N)[C@@H](O)[C@@H]1O` [KAN, kanamycin B] yielded an equilibrium dissociation constant (Kd) of 1540 nM.
